For 2 compounds, SGI results are on record in patent US20250041298A1, “CDK4 INHIBITOR FOR THE TREATMENT OF CANCER” (Pfizer Inc., priority 2021, published 2025).

Holding throughout (type): cell-based, human
The subject of assay [1] is HR+, HER2- T47D breast cancer spheroids. Briefly: Multicellular tumor spheroid growth inhibition (SGI), T47D. As for the experimental part:
(§1) The purpose of this example was to evaluate the combination effect of PF-07220060 and endocrine therapy in multicellular tumor spheroid growth inhibition (SGI). To model the characteristics and cellular behavior of human tumors, the activity of PF-07220060 was evaluated in three dimensional MCTS models of HR+ breast cancer and AR+ prostate cancer following PF-07220060 treatment as a single agent and in combination with fulvestrant • 1) in HR+, HER2-T47D breast cancer spheroids. • 2) in HR+, HER2+BT474 breast cancer spheroids, • 3) in BT474 spheroids, and • 4) in AR+ prostate carcinoma cell line (LNCaP) prostate cancer spheroids. Spheroids were treated with increasing concentrations of 100, 300, or 1000 nM PF-07220060 and compared to palbociclib at the clinically relevant concentration of 30 nM. Single agent PF-07220060 inhibited spheroid growth in a dose-dependent manner, with highest efficacy (86% SGI over the duration of treatment with 1000 nM) shown in the T47D BC spheroid model (Table 1). Combining 100 nM PF-07220060 with 1 nM fulvestrant in T47D cells increased SGI to 96% compared to either single agent alone (57 to 67% SGI with 100 nM PF-07220060 or 79% SGI with fulvestrant) (Table 1). BT474 spheroids were relatively less sensitive to PF-07220060 resulting in 52% SGI at 1000 nM.

For assay [2], the system named is HR+, HER2+ BT474 breast cancer spheroids. In words: Multicellular tumor spheroid growth inhibition (SGI), BT474. How it is done: as §1
The subject of assay [3] is AR+ prostate carcinoma cell line (LNCaP) prostate cancer spheroids. Briefly: Multicellular tumor spheroid growth inhibition (SGI), LNCaP. As for the experimental part:
The purpose of this example was to evaluate the combination effect of PF-07220060 and endocrine therapy in multicellular tumor spheroid growth inhibition (SGI). To model the characteristics and cellular behavior of human tumors, the activity of PF-07220060 was evaluated in three dimensional MCTS models of HR+ breast cancer and AR+ prostate cancer following PF-07220060 treatment as a single agent and in combination with fulvestrant • 1) in HR+, HER2-T47D breast cancer spheroids. • 2) in HR+, HER2+BT474 breast cancer spheroids, • 3) in BT474 spheroids, and • 4) in AR+ prostate carcinoma cell line (LNCaP) prostate cancer spheroids. Spheroids were treated with increasing concentrations of 100, 300, or 1000 nM PF-07220060 and compared to palbociclib at the clinically relevant concentration of 30 nM.

Several values for one entry are separate records, joined by “and”; a condition that tells them apart may be missing. Equal values may be shown once.

Turning to `CC(=O)c1c(C)c2cnc(Nc3ccc(N4CCNCC4)cn3)nc2n(C2CCCC2)c1=O` [Palbociclib, reference compound], the SGI was 38% and 49% in assay [1] (30 nM single agent); 0% and 5% and 1% in assay [2] (30 nM single agent); 5% in assay [3] (30 nM single agent); 24% in assay [3] (100 nM single agent).

As to `C[C@]12CC[C@@H]3c4ccc(O)cc4C[C@@H](CCCCCCCCC[S+]([O-])CCCC(F)(F)C(F)(F)F)[C@H]3[C@@H]1CC[C@@H]2O` (stereo partly drawn) [Fulvestrant, reference compound], the SGI in assay [1] (1 nM single agent) was 79%; in assay [2] (100 nM single agent) it was 10%.
